Test results published in US20240398823A1, “DUAL INHIBITOR OF HISTONE DEACETYLASE 6 AND HEAT SHOCK PROTEIN 90” (TAIPEI MEDICAL UNIVERSITY, priority 2021, published 2024).

Key:
HDAC3 = target: T1, HDAC3 (Homo sapiens, UniProt O15379); assay: HDAC enzymes inhibition assay (Reaction Biology), HDAC3; assay type: biochemical; details: 10-dose, 3-fold dilution from 10 μM, single experiment
T1 construct: Reaction Biology Corporation (ran the assay as a service)

HSP90α = target: T2, HSP90α (Homo sapiens, UniProt P07900); assay: HSP90 inhibition assay, FITC-geldanamycin competition fluorescence polarization, HSP90α; assay type: binding; details: FITC-GM competition
T2 construct: Reaction Biology Corporation (ran the assay as a service)

[1] = tested on: acetylation of α-tubulin and histone H3; assay: Western blot of α-tubulin and histone H3 acetylation in HCT116; assay type: cell-based, human; details: HCT116, 0.25-1 μM, 6 hours
Description: The ability of α-tubulin and histone H3 acetylation was measured.
The effects of the HSP90/HDAC6 dual inhibitors as described in Synthesis Examples (such as Compounds 63, 64, and 66 to 76) on several factors were evaluated. Cells were lysed in RIPA buffer (Thermo Fisher Scientific, Wal-tham, MA, USA) and protease inhibitor (Roche, Basel, CH). Sample were further separated in 8% or 15% SDS-PAGE and transferred to nitrocellulose membrane and blocked with 5% skim milk (w/v in PBS). Nitrocellulose membranes were then incubated with primary antibodies against the following antigens: HSP90, Src, AKT, Rb, phosphorylated Rb (p-Rb), FAK, HSP70, α-tubulin acetylation, acetyl histone H3, phosphorylated STAT1 (p-STAT1), STAT1 (Cell signaling, Danvers, MA, USA), α-tubulin, Histone H3 (Genetex, Irvine, USA), IDO (Santa Cruz Biotechnology Dallas, TX, USA) and PD-L1 (Novus, Littleton, CO, USA) at 4° C. for overnight. The target proteins were visualized by using HRP-conjugated secondary antibodies (Jackson ImmunoResearch Laboratories, West Grove, PA, USA) and enhanced chemiluminescence kit (Thermo Fisher Scientific, Waltham, MA, U.S.A.).
The ability of Compound 75 on the acetylation of α-tubulin and histone H3 was evaluated. HCT116 cells were administered with Compound 75 for 6 hours and analyzed by western blot. […] Next, whether Compound 75 inhibited HSP90 was evaluated. […]

[2] = tested on: colorectal cancer tumors (CT26); assay: CT26 syngeneic tumor growth in immunocompetent Balb/c mice; assay type: in vivo, mouse; details: CT26 in Balb/c, 10, 25, 50 mg/kg i.v. every two days
Description: Tumor size in each mouse (FIG. 5B) and mean tumor size (FIG. 5C) were measured periodically. Bar, SEM. […] N values greater than 3.
The effects of the HSP90/HDAC6 dual inhibitors as described in Synthesis Examples (such as Compounds 63, 64, and 66 to 76) on syngeneic tumor treatment were evaluated. Female BALB/c mice were subcutaneously implanted with mouse colorectal cancer CT26 cells ([…] cells/mouse) in the left unilateral back. After tumor size reached 50 mm^3, mice were i.v. injected with […], STA9090 (Ganetespib), or anti-PD-1 antibody (clone RMP1-14) (4-8 mice per group). The progression of tumor sizes and body weights was measured twice per week. Tumor volume formula: V (mm^3)=(length×width×height)/2. Mice were sacrificed on day 25, and tumors and blood were collected for the analysis of immune cell populations.
After CT26 was injected subcutaneously into the back of immunocompetent mice (Balb/c), the tumors grew to 50 mm^3. Compound 75 was administered intravenously at 10 mg/kg, 25 mg/kg and 50 mg/kg every two days (FIG. 5A).

[3] = tested on: PD-L1 and IDO expression in tumor region (CT26); assay: IHC of PD-L1 and IDO in CT26 tumor region; assay type: in vivo, mouse; details: CT26 tumors, day 25, IHC, 10, 25, 50 mg/kg
Description: The tumors were removed and immunohistochemically stained at 25 days after intravenous tail injection in mice with colorectal cancer tumors. […] Bar, SD.
(§1) The effects of the HSP90/HDAC6 dual inhibitors as described in Synthesis Examples (such as Compounds 63, 64, and 66 to 76) on several factors were evaluated. IHC-Paraffin: Tumor tissues were excised from the mice, fixed in 4% formaldehyde solution in PBS, and embedded in paraffin. Sections of 4-5 μm were cut and placed in an oven at 60° C. for overnight. After deparaffinizing and rehydrating the section, the antigen retrieval was performed with citrate buffer (10 mM citrate acid, pH 6) or Tris buffer (10 mM Tris, 1 mM EDTA, pH9) by autoclave for 30 min at 121 C. The sections were blocked with 10% goat serum and then incubated with primary antibodies against the following antigens: IDO (Santa Cruz Biotechnology Dallas, TX, USA), CD8 (Novus, Littleton, CO, USA) and granzyme B (Abcam, Cambridge, UK) at 4 C for overnight. IHC— Frozen for PD-L1: Tumor tissues were collected from the mice, embedded in OCT compound (Sakura Finetek, Torrance, CA, U.S.A.). […] Images of the tumor tissues sections were captured by Mirax Scan (CARL ZEISS, Germany) or TissueFAXS (Vienna, Austria) and analyzed by HistoQuest software (Vienna, Austria).
Compound 75 was evaluated to determine its ability to reduce PD-L1 and IDO in the tumor microenvironment.

[4] = tested on: CD8 cells and granzyme B in mouse tumor area; assay: IHC of CD8 cell infiltration and granzyme B in CT26 tumor area; assay type: in vivo; details: CT26 tumors, day 25, IHC, 10, 25, 50 mg/kg
Description: The tumors were removed from mice on day 25 and embedded in paraffin and sectioned for immunohistochemical staining. […] Bar, SD.
as §1, with “overnight.” for “overnight. IHC— Frozen for PD-L1: Tumor tissues were collected from the mice, embedded in OCT compound (Sakura Finetek, Torrance, CA, U.S.A.).”
It is known that TME blocks the infiltration of functional immune cells into the tumor area. The effects of Compound 75 on CD8 cell infiltration in the tumor area were evaluated. […] Therefore, the ability of CD8+ T cells to secrete granzyme B was evaluated.

serum TGF-β and IL-2 = assay: Serum cytokines in CT26 tumor mice; assay type: in vivo, mouse; details: day 25, 10, 25, 50 mg/kg
Description: FIGS. 11A and 11B show effects of Compound 75 on peripheral blood cytokines. BALB/c mice with CT26 tumors were treated with 10, 25 and 50 mg/kg of Compound 75 every two days and sacrificed on day 25. Data are expressed as mean t S.D. N values greater than 3. *P<0.05; ** P<0.01; *** P<0.001, compared to the control group.
The reasons for the decrease of Treg in blood were further investigated.

T1 sequence (O15379 whole entry): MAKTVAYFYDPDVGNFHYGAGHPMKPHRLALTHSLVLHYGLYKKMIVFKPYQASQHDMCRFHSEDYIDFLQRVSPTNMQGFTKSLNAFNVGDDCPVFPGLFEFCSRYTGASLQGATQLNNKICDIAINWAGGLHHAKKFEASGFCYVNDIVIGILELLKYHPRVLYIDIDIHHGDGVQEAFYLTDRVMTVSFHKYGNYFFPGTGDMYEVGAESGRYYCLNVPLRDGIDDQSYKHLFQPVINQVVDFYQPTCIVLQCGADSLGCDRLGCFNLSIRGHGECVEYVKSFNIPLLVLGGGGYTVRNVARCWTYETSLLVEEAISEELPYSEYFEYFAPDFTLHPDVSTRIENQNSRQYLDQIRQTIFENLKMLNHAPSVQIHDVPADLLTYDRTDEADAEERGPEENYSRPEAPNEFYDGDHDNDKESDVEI
T1 sequence (Q9Y618 395-489 partner limits assumed): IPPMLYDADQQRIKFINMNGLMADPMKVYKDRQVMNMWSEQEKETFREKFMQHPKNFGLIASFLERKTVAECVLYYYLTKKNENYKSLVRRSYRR

## COc1ccc(N(Cc2ccc(C(=O)NO)cc2)C(=O)c2cc(C(C)C)c(O)cc2O)cc1 [Compound 75, 2,4-Dihydroxy-N-(4-hydroxycarbamoyl-benzyl)-5-isopropyl-N-(4-methoxy-phenyl)-benzamide]
HDAC3
  IC50: 1370 nM
HSP90α
  IC50: 52 nM
[1]
  acetylation of α-tubulin and histone H3: enhances the acetylation of α-tubulin and histone H3
[2]
  growth of colorectal cancer tumors in mice: inhibit the growth of colorectal cancer tumors in mice
[3]
  PD-L1 and IDO expressions in the tumor region: reduces PD-L1 and IDO expressions
[4]
  CD8 immune cell infiltration in the mouse tumor area: significantly increased
  granzyme B secretion: concentration-dependent increase
Serum TGF-β and IL-2
  serum IL-2: had no effect
  serum TGF-β expression: significantly reduced
